# From patent US20050148786A1, “Diimmonium compound and use thereof” (Nippon Kayaku Kabushiki Kaisha, priority 2003, published 2005)
# What was measured:
# [1] = Stability test of moisture-and-heat resistance of near-IR absorption filter; assay type: physicochemical; settings: for b* value, difference: 14-day after minus initial, 60° C. and 95% RH; for b* value, 14-day after / b* value, initial period: acrylic resin filter; for b* value, 14-day after: 14 days at 60° C. and 95% RH; for b* value, initial period: before test
# Procedure: (§1) 1.2 part of each compound obtained in each Example was dissolved in 18.8 part of MEK. 80 part of a resin solution obtained by dissolving 25 part of an acrylic resin (Dianal BR-80, manufactured by Mitsubishi Rayon Co., Ltd.) in 75 part of MEK was mixed with the obtained solution to obtain a solution for coating. The solution was applied to form a film with a thickness of 2 to 4 μm on a polyester film and dried at 80° C. to obtain a near-IR absorption filter of the invention.
# The obtained near-IR absorption filter was subjected to a stability test of moisture-and-heat resistance for 14 days in a constant temperature and constant humidity apparatus under 60° C. and 95% RH conditions. The filter was subjected to color measurement by a spectrophotometer before and after the test to calculate L*, a*, and b* values. If the + value of b* value is high, it means that the hue is yellowish and if b* value is close to 0, it means that the yellowish degree is low and filter is desirable and therefore, the hue evaluation and stability evaluation were done based on the b* value and its change.
# [2] = Comparative test of molar absorption coefficient measurement; assay type: physicochemical; settings: in dichloromethane; in M-1·cm-1
# From the text: The compounds obtained in the above-mentioned Examples were subjected to the measurement of molar absorption coefficient (ε) in dichloromethane.
# [3] = maximum absorption wavelength (λmax) in dichloromethane; assay type: physicochemical
# From the text: λmax: 1,102 nm (in dichloromethane);
# [4] = Stability test of heat resistance of near-IR absorption filter; assay type: physicochemical; settings: for b* value, initial period / b* value, 14-day after: acrylic resin filter; for b* value, initial period: before test; for b* value, 14-day after / b* value, difference: oven at 80° C.; for b* value, 14-day after: head prints 14-day, text 21 days; for b* value, difference: after minus initial
# Procedure: as §1
# […] After that, the filters were subjected to color measurement by a spectrophotometer to calculate L*, a*, and b* values and their stability was evaluated based on the change in b* values. If the b* is low, that is, the absorption in visible ray region is low, the near-IR absorption filter is preferable.
# [5] = thermal decomposition point (weight decrease starting point) by TG-DTA; assay type: physicochemical; settings: measured by TG-DTA
# Procedure: the melting point: around 170° C.; and the thermal decomposition point (the weight decrease starting point): around 280° C. (measured by TG-DTA)
# [6] = Comparative test of solubility measurement; settings: room temperature; for solubility in MEK: methyl ethyl ketone
# Procedure: The solubility was measured for the compounds obtained in the above-mentioned Examples at a room temperature in methyl ethyl ketone (MEK) and toluene.
Compound,"b* value, difference [1]","b* value, 14-day after [1]","b* value, initial period [1]",molar absorption coefficient (ε) [2],λmax [3],"b* value, initial period [4]","b* value, 14-day after [4]","b* value, difference [4]",thermal decomposition point (the weight decrease starting point) [5],solubility in MEK [6],solubility in toluene [6]
"CCCCN(CCCC)c1ccc([N+](=C2C=CC(=[N+](c3ccc(N(CCCC)CCCC)cc3)c3ccc(N(CCCC)CCCC)cc3)C=C2)c2ccc(N(CCCC)CCCC)cc2)cc1.F[P-](F)(F)(F)(F)F.F[P-](F)(F)(F)(F)F [Compound No. 155, hexafluorophosphate of N,N,N′,N′-tetrakis[p-di(n-butyl)aminophenyl]-p-phenylenediimmonium, reference compound]",6.1,9.0,2.9,–,–,–,–,–,–,–,–
CC(C)CN(CC(C)C)c1ccc([N+](=C2C=CC(=[N+](c3ccc(N(CC(C)C)CC(C)C)cc3)c3ccc(N(CC(C)C)CC(C)C)cc3)C=C2)c2ccc(N(CC(C)C)CC(C)C)cc2)cc1 [Compound No. 2],1.9,4.1,2.2,"109,000","1,104 nm",2.2,3.7,1.5,around 282 °C,–,–
CCCCN(CCCC)c1ccc([N+](=C2C=CC(=[N+](c3ccc(N(CCCC)CCCC)cc3)c3ccc(N(CCCC)CCCC)cc3)C=C2)c2ccc(N(CCCC)CCCC)cc2)cc1 [Compound No. 1],1.8,5.3,3.5,"108,000","1,102 nm",3.5,5.3,1.8,around 280 °C,–,–
"CCCCN(CCCC)c1ccc([N+](=C2C=CC(=[N+](c3ccc(N(CCCC)CCCC)cc3)c3ccc(N(CCCC)CCCC)cc3)C=C2)c2ccc(N(CCCC)CCCC)cc2)cc1.O=S(=O)([O-])c1cccc2c(S(=O)(=O)[O-])cccc12 [Compound No. 151, 1,5-naphthalenedisulfonic acid salt of N,N,N′,N′-tetrakis[p-di(n-butyl)aminophenyl]phenylenediimmonium, reference compound]",–,–,–,"82,000",–,–,–,–,–,–,–
N#CCCCCN(CCCCC#N)c1ccc([N+](=C2C=CC(=[N+](c3ccc(N(CCCCC#N)CCCCC#N)cc3)c3ccc(N(CCCCC#N)CCCCC#N)cc3)C=C2)c2ccc(N(CCCCC#N)CCCCC#N)cc2)cc1.O=S(=O)([N-]S(=O)(=O)C(F)(F)F)C(F)(F)F.O=S(=O)([N-]S(=O)(=O)C(F)(F)F)C(F)(F)F [Compound No. 9],1.9,4.3,2.4,"109,000","1,086 nm",–,–,–,around 277 °C,–,–
CCCCN(CCCC#N)c1ccc([N+](=C2C=CC(=[N+](c3ccc(N(CCCC)CCCC#N)cc3)c3ccc(N(CCCC)CCCC#N)cc3)C=C2)c2ccc(N(CCCC)CCCC#N)cc2)cc1.O=S(=O)([N-]S(=O)(=O)C(F)(F)F)C(F)(F)F.O=S(=O)([N-]S(=O)(=O)C(F)(F)F)C(F)(F)F [Compound No. 35],–,–,–,–,"1,090 nm",–,–,–,around 256 °C,–,–
"CCCCN(CCCC)c1ccc([N+](=C2C=CC(=[N+](c3ccc(N(CCCC)CCCC)cc3)c3ccc(N(CCCC)CCCC)cc3)C=C2)c2ccc(N(CCCC)CCCC)cc2)cc1.O=S(=O)([O-])c1ccc2c(S(=O)(=O)[O-])cccc2c1O [Compound No. 152, 1-hydroxy-2,5-naphthalenedisulfonic acid salt of N,N,N′,N′-tetrakis[p-di(n-butyl)aminophenyl]phenylenediimmonium, reference compound]",–,–,–,"24,500",–,–,–,–,–,–,–
CCN(CC)c1ccc([N+](=C2C=CC(=[N+](c3ccc(N(CC)CC)cc3)c3ccc(N(CC)CC)cc3)C=C2)c2ccc(N(CC)CC)cc2)cc1.O=S(=O)([N-]S(=O)(=O)C(F)(F)F)C(F)(F)F.O=S(=O)([N-]S(=O)(=O)C(F)(F)F)C(F)(F)F [Compound No. 12],–,–,–,"96,000","1,084 nm",–,–,–,around 278 °C,–,–
CC(C)CCN(CCC(C)C)c1ccc([N+](=C2C=CC(=[N+](c3ccc(N(CCC(C)C)CCC(C)C)cc3)c3ccc(N(CCC(C)C)CCC(C)C)cc3)C=C2)c2ccc(N(CCC(C)C)CCC(C)C)cc2)cc1.O=S(=O)([N-]S(=O)(=O)C(F)(F)F)C(F)(F)F.O=S(=O)([N-]S(=O)(=O)C(F)(F)F)C(F)(F)F [Compound No. 4],2.1,4.3,2.2,"110,000","1,102 nm",2.4,3.8,1.6,around 280 °C,10%,0.1%
"N#CCCCN(CCCC#N)c1ccc([N+](=C2C=CC(=[N+](c3ccc(N(CCCC#N)CCCC#N)cc3)c3ccc(N(CCCC#N)CCCC#N)cc3)C=C2)c2ccc(N(CCCC#N)CCCC#N)cc2)cc1.[F][Sb-]([F])([F])([F])([F])[F].[F][Sb-]([F])([F])([F])([F])[F] [Compound No. 154, hexafluoroantimonate of N,N,N′,N′-tetrakis[p-di(3-cyanopropyl)aminophenyl]phenylene diimmonium, reference compound]",–,–,–,–,–,–,–,–,–,insoluble,insoluble
"CCCCN(CCCC)c1ccc([N+](=C2C=CC(=[N+](c3ccc(N(CCCC)CCCC)cc3)c3ccc(N(CCCC)CCCC)cc3)C=C2)c2ccc(N(CCCC)CCCC)cc2)cc1.F[B-](F)(F)F.F[B-](F)(F)F [Compound No. 156, borofluoride salt of N,N,N′,N′-tetrakis[p-di(n-butyl)aminophenyl]phenylene diimmonium, reference compound]",10.8,14.3,3.5,–,–,–,–,–,–,–,–
